This is an account of results in PMC12505902, “Inhibitors of trehalose-6-phosphate synthase activity in fungal pathogens compromise thermal tolerance pathways” (mBio, 2025).

The structures appear in SMILES notation. Converted amounts (≈) assume the structure as drawn. Like-named read-outs stand apart in the source and are kept apart here.

The test system of experiment [1] is C. neoformans. More on the design: method as in earlier work. The conditions noted are these: Supplemental Table 5; ref (13); cited from earlier work.
Experiment [2] has as its system C. albicans. Particulars: Supplemental Table 5, cited from earlier work.
On the set-up of experiment [3]: method as in PMID 27248439. Particulars: ref [12]; cited from earlier work.
The subject of experiment [4] is C. neoformans. More on the design: method as in PMID 27248439. Particulars: ref [12]; cited from earlier work.
The subject of experiment [5] is Cryptococcus gattii. Further details: method as in PMID 27248439. Particulars: ref [12]; cited from earlier work.
For experiment [6], the target named is T1, 6xHis-CaTps1 (Candida albicans, UniProt Q92410).
T1 construct: Briefly, the full-length; thrombin cleavage site (pET-28a linker) (N); made in house; host or cells: E. coli BL21(DE3)pLysS
T1 sequence (Q92410 1-478): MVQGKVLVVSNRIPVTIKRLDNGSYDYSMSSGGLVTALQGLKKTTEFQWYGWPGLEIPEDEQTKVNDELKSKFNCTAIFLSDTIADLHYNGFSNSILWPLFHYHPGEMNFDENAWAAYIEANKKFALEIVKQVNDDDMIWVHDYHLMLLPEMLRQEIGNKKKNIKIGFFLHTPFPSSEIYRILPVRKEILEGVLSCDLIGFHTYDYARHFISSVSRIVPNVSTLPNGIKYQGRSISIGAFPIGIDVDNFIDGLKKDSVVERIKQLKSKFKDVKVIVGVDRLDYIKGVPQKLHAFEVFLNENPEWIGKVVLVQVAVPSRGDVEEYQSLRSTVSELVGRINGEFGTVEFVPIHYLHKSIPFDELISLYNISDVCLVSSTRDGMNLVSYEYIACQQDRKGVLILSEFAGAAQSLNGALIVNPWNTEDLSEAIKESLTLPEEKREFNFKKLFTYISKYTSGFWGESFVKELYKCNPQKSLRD
Briefly: Spectrophotometric-coupled Tps1 enzyme activity assay. It counts as biochemical, C. albicans. The conditions noted are these: compounds diluted in DMSO, normalized to the DMSO control. Here is the method: Fig 2 4456dh binds Tps1 and inhibits Tps1 activity. (A) Structure of 4456dh. (B and C) Glo-melt thermal shift assays reveal 4456dh destabilizes 6xHis-CaTps1 (B) and 6xHis-CnTps1 (C). The first derivative of the raw data was used to determine the melting temperature of 1 µM 6xHis-CaTps1 (B) and 1 µM 6xHis-CnTps1 (C) treated without (black) or with 2 mM 4456dh (red). […] The resulting dose-response curves were fitted to a one-site binding model to extract Kd values; the SD was calculated using the Kd values from each independent experiment (n = 3). (F) Tps1 enzyme activity assay with 5 µM 6xHis-CaTps1 (F) and 6xHis-CnTps1 (G) ±1 mM 4456dh. Error bars represent SE. […]
The ability of 4456dh to inhibit the activity of CaTps1 was tested using a spectrophotometric-coupled Tps1 enzyme assay, in which recombinant 6xHis-CaTps1 was incubated with 1 mM 4456dh at 4°C for 16 hours. […] Similarly, the effect of 1 mM 4456dh on 6xHis-CnTps1 activity was determined. […]
82 determined by SDS-PAGE analysis, were pooled and concentrated to 1 mg/mL for downstream […]
93 The data were acquired with MO.Control 1.5.3 (NanoTemper Technologies GmbH). Recorded
94 data were analyzed with MO.Affinity Analysis 2.2.7 (NanoTemper Technologies GmbH). […]
100 2X Glo-melt dye. Thermal denaturation was measured using an RT-PCR thermocycler (BioRad) […]
102 determined by identifying the inflection point of the derivative data. […]

Experiment [7] deals with T1, 6xHis-CaTps1. Briefly: UDP Transcreener FP assay, primary screen of the 3PP library. The class given is biochemical. Particulars: for inhibition at 500 µM: read-out: CaTps1 FP (% inhibition). An excerpt: As the first step of the trehalose biosynthesis pathway, Tps1 synthesizes T6P from the substrates UDP-glucose and G6P, followed by the release of UDP and T6P ([16]). To identify a small molecule inhibitor of Tps1 activity, we adapted an HTS utilizing the UDP Transcreener FP assay ([33], [34]). The FP assay detects the UDP released as a result of the Tps1-mediated enzymatic reaction (Fig. 1A). The FP assay Z’ factor, which describes the suitability of an assay for an HTS, is 0.87, indicating an ideal signal-to-noise ratio (Fig. S1A) ([35]). There was a greater than 175 millipolarization (mP) shift between the positive control novobiocin, an inhibitor with activity against a bacterial trehalose-P-synthase, and the negative control dimethyl sulfoxide (DMSO) (Fig. S1A) ([36]). Recombinant Tps1 from C. albicans, hereafter referred to as CaTps1, was expressed in E. coli and purified via an N-terminal 6xHis-tag and Ni^2-NTA affinity chromatography, followed by size exclusion chromatography (Fig. 1B). A 3-point pharmacophore (3PP) library, which consisted of a subset of 750 compounds of less than 300 Da in molecular mass from the St. Jude Children’s Research Hospital chemical library, was screened for the ability to inhibit 6xHis-CaTps1 activity ([37]). In the primary screen, 32 (4.3 %) compounds that inhibited the activity of 6xHis-CaTps1 by more than 10% at 500 µM concentration were identified (Fig. 1C and D). A 10% cutoff provided a significant number of hits to validate using a dose response assay (Fig. S1B). At the completion of the screen, seven compounds that inhibit the activity of CaTps1 in a dose-dependent manner were selected for further investigation (Fig. 1E; Table 1).
The glycosyltransferase activity of 6xHis-CaTps1, which results in the release of UDP, was measured using the UDP Transcreener FP assay (BellBrook Labs #3018, Madison, WI). The St. Jude Children’s Hospital (Memphis, TN) 3PP library was screened ([37]). Assays were performed at 37°C for 60 minutes in a 384-well plate using 5 µM 6xHis-CaTps1 in assay buffer containing 50 mM Tris-HCl pH 7.5, 300 mM NaCl, 10 mM MgCl2, and 1 mM dithiothreitol (DTT). Fluorescence polarization was detected using a BMG Labtech plate reader. Each assay plate contained the following additional control wells: (i) no antibody control, (ii) DMSO vehicle control, (iii) novobiocin positive control, and (iv) novobiocin dose-response. Screens were performed by the addition of single-point additions of test molecules to the above assay. The Z’ factor was calculated according to guidelines by Zhang et al., with a Z-factor of 0.5 and 1.0 indicating an excellent assay ([35]).

[8] abbreviates: primary screen, 500 µM compound, 5 µM 6xHis-CaTps1, 37°C 60 minutes.

For orientation: MIC80 means the lowest concentration that inhibits either 80% of growth or 80% of the strains tested, depending on the study. As for `C[C@@H]1[C@H](O)[C@@H](C)/C=C/C=C/C=C/C=C/C=C/C=C/C=C/[C@H](O[C@@H]2O[C@H](C)[C@@H](O)[C@H](N)[C@@H]2O)C[C@@H]2O[C@](O)(C[C@@H](O)C[C@@H](O)[C@H](O)CC[C@@H](O)C[C@@H](O)CC(=O)O[C@H]1C)C[C@H](O)[C@H]2C(=O)O` [Amphotericin B], the “MIC80” value in experiment [1] is 2 µg/mL (≈ 2.16 µM).
As for `CC[C@H](C)C[C@H](C)CCCCCCCCC(=O)N[C@H]1C[C@@H](O)[C@@H](NCCN)NC(=O)[C@@H]2[C@@H](O)CCN2C(=O)[C@H]([C@H](O)CCN)NC(=O)[C@H]([C@H](O)[C@@H](O)c2ccc(O)cc2)NC(=O)[C@@H]2C[C@@H](O)CN2C(=O)[C@H]([C@@H](C)O)NC1=O` [Caspofungin], the “MIC80” value in experiment [2] (ref (12)) is on record as 1 µg/mL (≈ 0.915 µM).
`Cc1cc(C(C#N)c2ccc(Cl)cc2)c(Cl)cc1NC(=O)c1cc(I)cc(I)c1O` (centres unmarked) [Closantel]: the “antifungal activity in murine models” value in experiment [3] is on record as “does not have antifungal activity”. Moreover, the activity in vitro entry in experiment [4] and in experiment [5] was “potent activity” each time.
As for `Cn1cc(-c2csc(NC(=O)Cc3ccccn3)n2)cn1` [Compound 4456], the “effect of SJ6675 derivatives on CaTps1 activity” value in experiment [6] is listed as “significantly inhibited the activity of CaTps1”.
Consider `OC(Cn1cncn1)(Cn1cncn1)c1ccc(F)cc1F` [Fluconazole], for which the “MIC80” value in experiment [2] (ref (11)) was 1.84 µg/mL (≈ 6.01 µM).
As to `Nc1[nH]c(=O)ncc1F` [Flucytosine], the “MIC80” value in experiment [1] is recorded as 8 µg/mL (≈ 62 µM).
As a reminder, the inhibition is the drop in the measured response relative to a control, in per cent. For `N#CCC(=O)c1ccco1` [SJ000805629-1], in experiment [7] (setting [8]), the inhibition at 500 µM stood at 32.2%.
Regarding `CN(C)C(C#N)c1ccccc1Cl` (centres unmarked) [SJ000866063-1], in experiment [7], the inhibition at 500 µM worked out at 19%.
Take `CC(Cc1ccoc1)NS(C)(=O)=O` (centres unmarked) [SJ000866077-1]: the inhibition at 500 µM in experiment [7] (setting [8]) was determined as 11.1%.
For the molecule `CN(C)C(C#N)c1c(F)cccc1Cl` (centres unmarked) [SJ000866107-1], the inhibition at 500 µM in experiment [7] is 18.2%.
For `CN1CCc2c(sc(N)c2C#N)C1` [SJ000866390-1], the inhibition at 500 µM in experiment [7] (setting [8]) came to 36.4%.
The same measure, in the same setting: with `O=C(C1CC1)N1CCCNCC1` [SJ000866536-1] the figure was 18.6%; with `Nc1nc(-c2ccoc2)cs1` [SJ000866675-1, [4-furan-3-yl]thiazol-2-amine], 13.7%.
On to `C[C@@H](c1ncncc1F)[C@](O)(Cn1cncn1)c1ccc(F)cc1F` [Voriconazole], for which the “MIC80” value in experiment [2] (ref (11)) is 0.06 µg/mL (≈ 0.172 µM).
`CO[C@@H]1[C@@H](OC(N)=O)[C@@H](O)[C@H](Oc2ccc3c(O)c(NC(=O)c4ccc(O)c(CC=C(C)C)c4)c(=O)oc3c2C)OC1(C)C` [novobiocin, reference compound]: the “millipolarization (mP) shift between positive control and DMSO” value in experiment [7] (positive control versus negative control DMSO) is on record as “greater than 175 mP”.
